Data on 15 compounds can be found in PubChem BioAssay (NCI).

Where “and” joins values, the source holds several entries; their conditions need not be identical. Identical values can stand only once.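 Grown in 96-well plates, cells were treated for 48 hours with each compound at five concentrations. Insufficient inhibition: endpoint recorded as highest concentration tested. At the GI50, growth is halved. At the TGI there is no net growth.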 Where a SMILES comes first, the peptide text is derived from it. [ ]: non-standard residue; d: D form. The star is where a group is joined. ξ: configuration not given here. X6 = FC(F)(F)c1cc(NC(=S)*)cc(C(F)(F)F)c1; ξF = NC(Cc1ccccc1)C(=O)O

The test system of one assay is NCI-H226 lung. In words: NCI tumour cell line growth inhibition, 48 h.
Turning to `O=C1C=C(Cl)C(=O)C(c2ccc(Cl)cc2)=C1`, the TGI stood at 85.5 µM.
Consider `COc1cc(-c2nn(-c3ccc(NC(=O)c4ccc(Cl)c(C(F)(F)F)c4)cc3)cc2-c2ccncc2)ccc1Cl`, for which the GI50 is 5.31 µM and the TGI is over 100 µM.
For `O=C(Nc1ccccc1OC(F)(F)F)Nc1n[nH]c2ccccc12`, in that order: 26.1 µM and over 100 µM.
For `O=C(/C=C/C12c3ccccc3C(c3ccccc31)C1C(=O)NC(=O)C12)c1ccncc1` (stereo not drawn), in that order: 2.44 µM and 6.98 µM.
Consider `O=CN/C=C/c1cc(O)ccc1O`, for which the TGI was over 88.1 µM.
Regarding `COC(=O)[C@@H](NC(=O)CNC(=O)[C@H]1CCCN1C(=O)C(Cc1ccccc1)NC(=S)Nc1cc(C(F)(F)F)cc(C(F)(F)F)c1)C(C)C` (stereo partly drawn) (X6-[ξF][dP]GV-OMe), the GI50 is 1.65 µM and the TGI is 3.42 µM.
As for `COc1cc(Cc2cnc(/N=C3\C(=O)N(CN4CCN(c5c(F)cc6c(=O)c(C(=O)O)cn(C7CC7)c6c5OC)CC4C)c4ccc(F)cc43)nc2N)cc(OC)c1OC` (stereo not drawn), the GI50 was 13.8 µM and the TGI worked out at 43.3 µM.
On the same counts, the results for `O=C1/C(=C/c2cccc([N+](=O)[O-])c2)COc2ccc(O)cc21` are 2.19 µM and 5.23 µM.
On the same counts, the results for `NC(=O)c1sc(-n2cnc3ccccc32)cc1OCc1ccccc1Br` are 11.9 µM and over 25 µM.
`Clc1ccc2c(NCCCCNc3nc(N4CCCCC4)nc4ccccc34)ccnc2c1`: the GI50 was 3.85 µM and the TGI was 16.5 µM.
For `COc1cc(/C=N/NC(=O)c2ccc(C(F)(F)F)nc2Nc2ccc(Cl)cc2C)ccc1O`, the GI50 is 1.28 µM and the TGI stood at 5.01 µM.
On the same counts, the results for `O=C1CC(c2ccc3c(c2)OCO3)Nc2ccccc21` (stereo not drawn) are 24.6 µM and over 88 µM.
Compound `O=C1C(Cl)=C(Nc2cccc(Cl)c2)C(=O)N1Cc1ccc(Cl)cc1Cl` yielded a TGI of 2.26 µM.
Take `COC1CCC(N2C(=O)CNc3ncc(-c4ccc(C(C)(C)O)nc4)nc32)CC1` (stereo not drawn): the GI50 was 0.305 µM and 0.226 µM; the TGI was over 41.8 µM.
For the compound `Cc1cc(I)cc(CN(C)CCCCN2CCCCC2)c1O`, the GI50 was 25.7 µM and the TGI is over 100 µM.

The next assay has as its system NCI-H23 lung. Nature of the assay: NCI tumour cell line growth inhibition, 48 h.
Take `O=C1C=C(Cl)C(=O)C(c2ccc(Cl)cc2)=C1`: the TGI was found to be 67.3 µM.
As to `COc1cc(-c2nn(-c3ccc(NC(=O)c4ccc(Cl)c(C(F)(F)F)c4)cc3)cc2-c2ccncc2)ccc1Cl`, the GI50 is 3.06 µM and the TGI was over 100 µM.
On the same counts, the results for `O=C(Nc1ccccc1OC(F)(F)F)Nc1n[nH]c2ccccc12` are 50 µM and over 100 µM.
For `O=C(/C=C/C12c3ccccc3C(c3ccccc31)C1C(=O)NC(=O)C12)c1ccncc1` (stereo not drawn), in that order: 2.09 µM and 4.45 µM.
On to `O=CN/C=C/c1cc(O)ccc1O`, for which the TGI worked out at 43.7 µM.
`COC(=O)[C@@H](NC(=O)CNC(=O)[C@H]1CCCN1C(=O)C(Cc1ccccc1)NC(=S)Nc1cc(C(F)(F)F)cc(C(F)(F)F)c1)C(C)C` (stereo partly drawn) (X6-[ξF][dP]GV-OMe): the GI50 was 2.53 µM and the TGI was determined as 8.02 µM.
On the same counts, the results for `COc1cc(Cc2cnc(/N=C3\C(=O)N(CN4CCN(c5c(F)cc6c(=O)c(C(=O)O)cn(C7CC7)c6c5OC)CC4C)c4ccc(F)cc43)nc2N)cc(OC)c1OC` (stereo not drawn) are 18.1 µM and 42.9 µM.
For `O=C1/C(=C/c2cccc([N+](=O)[O-])c2)COc2ccc(O)cc21`, in that order: 2.02 µM and 4.64 µM.
For `NC(=O)c1sc(-n2cnc3ccccc32)cc1OCc1ccccc1Br`, in that order: 4.03 µM and over 25 µM.
As to `Clc1ccc2c(NCCCCNc3nc(N4CCCCC4)nc4ccccc34)ccnc2c1`, the GI50 was 4.67 µM and the TGI was determined as 19.2 µM.
On the same counts, the results for `COc1cc(/C=N/NC(=O)c2ccc(C(F)(F)F)nc2Nc2ccc(Cl)cc2C)ccc1O` are 3.63 µM and 16.7 µM.
For `O=C1CC(c2ccc3c(c2)OCO3)Nc2ccccc21` (stereo not drawn), in that order: 12.2 µM and 32.7 µM.
On the same counts, the results for `O=C1C(Cl)=C(Nc2cccc(Cl)c2)C(=O)N1Cc1ccc(Cl)cc1Cl` are 2.14 µM and 25.6 µM.
As for `COC1CCC(N2C(=O)CNc3ncc(-c4ccc(C(C)(C)O)nc4)nc32)CC1` (stereo not drawn), the GI50 was 1.16 µM and 0.35 µM; the TGI was over 45.1 µM.
For `Cc1cc(I)cc(CN(C)CCCCN2CCCCC2)c1O`, the GI50 is 24.7 µM and the TGI was over 100 µM.

A further assay deals with PC-3 prostate. In words: NCI tumour cell line growth inhibition, 48 h.
Consider `O=C1C=C(Cl)C(=O)C(c2ccc(Cl)cc2)=C1`, for which the TGI is 29.3 µM.
With `COc1cc(-c2nn(-c3ccc(NC(=O)c4ccc(Cl)c(C(F)(F)F)c4)cc3)cc2-c2ccncc2)ccc1Cl`, the GI50 is 3.04 µM and the TGI is over 100 µM.
Regarding `O=C(Nc1ccccc1OC(F)(F)F)Nc1n[nH]c2ccccc12`, the GI50 is 31.4 µM and the TGI was over 100 µM.
For `O=C(/C=C/C12c3ccccc3C(c3ccccc31)C1C(=O)NC(=O)C12)c1ccncc1` (stereo not drawn), in that order: 1.97 µM and 5.4 µM.
On to `O=CN/C=C/c1cc(O)ccc1O`, for which the TGI was over 100 µM.
For `COC(=O)[C@@H](NC(=O)CNC(=O)[C@H]1CCCN1C(=O)C(Cc1ccccc1)NC(=S)Nc1cc(C(F)(F)F)cc(C(F)(F)F)c1)C(C)C` (stereo partly drawn) (X6-[ξF][dP]GV-OMe), the GI50 is 2.48 µM.
For `COc1cc(Cc2cnc(/N=C3\C(=O)N(CN4CCN(c5c(F)cc6c(=O)c(C(=O)O)cn(C7CC7)c6c5OC)CC4C)c4ccc(F)cc43)nc2N)cc(OC)c1OC` (stereo not drawn), the GI50 was 13 µM and the TGI came out at 25.7 µM.
For `O=C1/C(=C/c2cccc([N+](=O)[O-])c2)COc2ccc(O)cc21`, in that order: 2.15 µM and 5.45 µM.
